Publication PMC9913752, “Proof-of-Concept Study of an Alpha-Fetoprotein-Derived Peptide for the Management of Canine Mammary Cancer” (Animals : an Open Access Journal from MDPI, 2023)
Where a SMILES comes first, the peptide text is derived from it. [ ]: non-standard residue; d: D form. Hyp = O=C(O)[C@@H]1C[C@@H](O)CN1

Test: 8-day repeat-dose study, tolerability (blood chemistry, hematology, adverse events) in tumor-bearing dogs
Format: in vivo, dog
Conditions: for ALP / ALT / AST / Albumin / BUN / Bicarbonate / Bilirubin Conj. / Calcium / Chloride / Cholesterol / Creatine Kinase / GGT / Globulin / Glucose / HCT / HGB / MCH / MCV / Phosphorous / Platelets / Potassium / RBC / Sodium / Total Bilirubin / Total Protein / WBC: Post: 30 min after last injection on day 8, 10 mg s.c. once daily for 8 days
Source text: Previous studies utilizing repeat dosing in mice and rats established safe starting doses for studies using dogs. Female dogs with one or more spontaneously occurring mammary gland tumors greater than approximately 2 cm in maximum diameter, presenting to the Cancer Institute at the Schwarzman Animal Medical Center in New York City, were screened for inclusion in the study. […] All dogs underwent complete clinical staging, consisting of a complete blood count with cell differential, clinical chemistry, and urinalysis. Dogs were administered AFPep 10 mg s.c. once daily for 8 consecutive days. Tumors were biopsied prior to the administration of AFPep and were surgically removed on day 8 after the last injection of AFPep. Blood levels of AFPep were measured before and 30 minutes following its administration on the first day and eighth day of treatment with AFPep. Histopathology was obtained on all mammary gland tumors. Tolerability was assessed using the Veterinary Cooperative Oncology Group Common Terminology Criteria for Adverse Events. Blood chemistry and hematology analyses were performed at IDEXX Laboratories Inc. (Westbrook, ME, USA), using the Sysmex XT and Beckman AU 5800 systems. This study was approved by the Schwarzman Animal Medical Center IACUC and informed consent was obtained in writing from all owners.

CC(C)[C@@H]1NC(=O)[C@@H]2C[C@@H](O)CN2C(=O)[C@H]([C@@H](C)O)NC(=O)[C@H](CCCCN)NC(=O)[C@H](CCC(=O)O)NC(=O)[C@H](CC(N)=O)NC(=O)CNC(=O)[C@@H]2C[C@@H](O)CN2C(=O)[C@H](CC(N)=O)NC1=O [AFPep] (cyclo(EKT[Hyp]VN[Hyp]GN))
AFPep-related adverse events (VCOG-CTCAE) (10 mg s.c. once a day for 8 days, 6 dogs with mammary cancer): grade-1 injection site reactions in three out of six dogs
complete blood counts with cell differential, clinical chemistry, and urinalysis (30 minutes before first exposure vs 30 minutes after the 8-day administration, 10 mg s.c. once daily, 6 dogs): unchanged
ALP (Dog 1): 261 U/L
ALT (Dog 1): 35 U/L
AST (Dog 1): 14 U/L
Albumin (Dog 1): 3 g/dL
BUN (Dog 1): 27 mg/dL
Bicarbonate (Dog 1): 21 mmol/L
Bilirubin Conj. (Dog 1): 0.1 mg/dL
Calcium (Dog 1): 10 mg/dL
Chloride (Dog 1): 111 mmol/L
Cholesterol (Dog 1): 277 mg/dL
Creatine Kinase (Dog 1): 120 U/L
GGT (Dog 1): 4 U/L
Globulin (Dog 1): 3 g/dL
Glucose (Dog 1): 107 mg/dL
HCT (Dog 1): 39%
HGB (Dog 1): 13 g/dL
MCH (Dog 1): 24 pg
MCV (Dog 1): 68 fL
Phosphorous (Dog 1): 4 mg/dL
Platelets (Dog 1): 438 10^3/µL
Potassium (Dog 1): 4 mmol/L
RBC (Dog 1): 6 10^6/µL
Sodium (Dog 1): 145 mmol/L
Total Bilirubin (Dog 1): 0.1 mg/dL
Total Protein (Dog 1): 6 g/dL
WBC (Dog 1): 18 10^3/µL
ALP (Dog 2): 115 U/L
ALT (Dog 2): 14 U/L
AST (Dog 2): 20 U/L
Albumin (Dog 2): 4 g/dL
BUN (Dog 2): 14 mg/dL
Bicarbonate (Dog 2): 23 mmol/L
Bilirubin Conj. (Dog 2): 0.1 mg/dL
Calcium (Dog 2): 11 mg/dL
Chloride (Dog 2): 108 mmol/L
Creatine Kinase (Dog 2): 225 U/L
GGT (Dog 2): 6 U/L
Globulin (Dog 2): 4 g/dL
Glucose (Dog 2): 178 mg/dL
HCT (Dog 2): 46%
HGB (Dog 2): 17 g/dL
MCH (Dog 2): 23 pg
MCV (Dog 2): 65 fL
Phosphorous (Dog 2): 3 mg/dL
Platelets (Dog 2): 700 10^3/µL
Potassium (Dog 2): 5 mmol/L
RBC (Dog 2): 7 10^6/µL
Sodium (Dog 2): 146 mmol/L
Total Bilirubin (Dog 2): 0.1 mg/dL
Total Protein (Dog 2): 8 g/dL
WBC (Dog 2): 7 10^3/µL
ALP (Dog 3): 178 U/L
ALT (Dog 3): 39 U/L
AST (Dog 3): 15 U/L
Albumin (Dog 3): 4 g/dL
BUN (Dog 3): 14 mg/dL
Bicarbonate (Dog 3): 23 mmol/L
Bilirubin Conj. (Dog 3): 0.1 mg/dL
Calcium (Dog 3): 9 mg/dL
Chloride (Dog 3): 108 mmol/L
Cholesterol (Dog 3): 273 mg/dL
Creatine Kinase (Dog 3): 115 U/L
GGT (Dog 3): 4 U/L
Globulin (Dog 3): 3 g/dL
Glucose (Dog 3): 107 mg/dL
HCT (Dog 3): 46%
HGB (Dog 3): 17 g/dL
MCH (Dog 3): 23 pg
MCV (Dog 3): 64 fL
Phosphorous (Dog 3): 4 mg/dL
Platelets (Dog 3): 558 10^3/µL
Potassium (Dog 3): 5 mmol/L
RBC (Dog 3): 7 10^6/µL
Sodium (Dog 3): 145 mmol/L
Total Bilirubin (Dog 3): 0.1 mg/dL
Total Protein (Dog 3): 7 g/dL
WBC (Dog 3): 6 10^3/µL
ALP (Dog 4): 148 U/L
ALT (Dog 4): 60 U/L
AST (Dog 4): 23 U/L
Albumin (Dog 4): 3 g/dL
BUN (Dog 4): 24 mg/dL
Bicarbonate (Dog 4): 17 mmol/L
Bilirubin Conj. (Dog 4): 0.1 mg/dL
Calcium (Dog 4): 10 mg/dL
Chloride (Dog 4): 114 mmol/L
Cholesterol (Dog 4): 451 mg/dL
Creatine Kinase (Dog 4): 169 U/L
GGT (Dog 4): 6 U/L
Globulin (Dog 4): 4 g/dL
Glucose (Dog 4): 92 mg/dL
HCT (Dog 4): 51%
HGB (Dog 4): 18 g/dL
MCH (Dog 4): 23 pg
MCV (Dog 4): 62 fL
Phosphorous (Dog 4): 3 mg/dL
Platelets (Dog 4): 485 10^3/µL
Potassium (Dog 4): 4.4 mmol/L
RBC (Dog 4): 8 10^6/µL
Sodium (Dog 4): 147 mmol/L
Total Bilirubin (Dog 4): 0.1 mg/dL
Total Protein (Dog 4): 6 g/dL
WBC (Dog 4): 13 10^3/µL
ALP (Dog 5): 15 U/L
ALT (Dog 5): 29 U/L
AST (Dog 5): 26 U/L
Albumin (Dog 5): 4 g/dL
BUN (Dog 5): 15 mg/dL
Bicarbonate (Dog 5): 21 mmol/L
Bilirubin Conj. (Dog 5): 0.1 mg/dL
Calcium (Dog 5): 10 mg/dL
Chloride (Dog 5): 110 mmol/L
Cholesterol (Dog 5): 373 mg/dL
Creatine Kinase (Dog 5): 138 U/L
GGT (Dog 5): 18 U/L
Globulin (Dog 5): 3 g/dL
Glucose (Dog 5): 88 mg/dL
HCT (Dog 5): 48%
HGB (Dog 5): 18 g/dL
MCH (Dog 5): 25 pg
MCV (Dog 5): 67 fL
Phosphorous (Dog 5): 3 mg/dL
Platelets (Dog 5): 462 10^3/µL
Potassium (Dog 5): 5 mmol/L
RBC (Dog 5): 7 10^6/µL
Sodium (Dog 5): 143 mmol/L
Total Bilirubin (Dog 5): 0.1 mg/dL
Total Protein (Dog 5): 7 g/dL
WBC (Dog 5): 7 10^3/µL
ALP (Dog 6): 19 U/L
ALT (Dog 6): 41 U/L
AST (Dog 6): 18 U/L
Albumin (Dog 6): 3 g/dL
BUN (Dog 6): 30 mg/dL
Bicarbonate (Dog 6): 21 mmol/L
Bilirubin Conj. (Dog 6): 0.1 mg/dL
Calcium (Dog 6): 10 mg/dL
Chloride (Dog 6): 114 mmol/L
Cholesterol (Dog 6): 198 mg/dL
Creatine Kinase (Dog 6): 80 U/L
GGT (Dog 6): 5 U/L
Globulin (Dog 6): 3 g/dL
Glucose (Dog 6): 81 mg/dL
HCT (Dog 6): 43%
HGB (Dog 6): 15 g/dL
MCH (Dog 6): 25 pg
MCV (Dog 6): 74 fL
Phosphorous (Dog 6): 6 mg/dL
Platelets (Dog 6): 519 10^3/µL
Potassium (Dog 6): 4 mmol/L
RBC (Dog 6): 6 10^6/µL
Sodium (Dog 6): 143 mmol/L
Total Bilirubin (Dog 6): 0.1 mg/dL
Total Protein (Dog 6): 6 g/dL
WBC (Dog 6): 13 10^3/µL
